{"source": "patent US10399971B2", "about": "“Compound for treating or preventing hyperuricemia or gout” (JIANGSU ATOM BIOSCIENCE AND PHARMACEUTICAL CO., LTD., priority 2015, dated 2019)", "format_in_all_cases": "cell-based", "key": {"[1]": {"system": "human normal liver cell line L-02", "assay": "Cytotoxicity test on human normal liver cell line L-02 (Alamar Blue)", "details": "L02, L-02 cells, 120 h incubation, cell viability, read-out: half inhibitory concentration (IC50) against L-02", "protocol": "(§1) 2.1 The normal liver cell lines L-02 and WRL-68 were cultured with DMEM culture medium (containing 10% of fetal bovine serum, 100 U/mL of penicillin and 0.1 mg/mL of streptomycin) in an incubator under 5% CO2 at 37° C. until the cell density was about 90%, respectively.\n(§2) 2.3 Tested compounds and benzbromarone at different concentration gradients were prepared by using the DMEM culture medium and added into wells at 100 μL/well as compounds wells. The DMEM culture medium was added into wells at 100 μL/well without tested compound as negative control wells.\n(§3) This 10× Alamar Blue solution was diluted into 1× Alamar Blue solution with phenol red free DMEM culture medium before use.\n(§4) 2.5 The cells were washed with PBS (0.1 M, pH=7.4) twice. The Alamar Blue solution was added into wells at 100 μL/well. 100 μL of Alamar Blue solution was added into wells without cells to serve as blank control wells. The 96-well plate was placed in an incubator under 5% CO2 at 37° C. for 3 h. Each concentration of compound was repeated three times during the test.\n(§5) The fluorescence value of the cells containing compound is the F(test compound); the fluorescence value of the cells without compound as blank control is the F(blank control); the fluorescent value of the cells from negative control group is F(negative control). The average value and standard deviation of cell viability of three repeated concentrations was calculated by the following formula: […]\n(§6) 2.7 The half inhibitory concentration (IC50) of the compound for the cells L-02 and WRL-68 was obtained from the cell viability by Prism Graph software."}, "[2]": {"biological_target": "T1, hURAT1 (Homo sapiens, UniProt Q96S37)", "T1 sequence (Q96S37 1-553)": "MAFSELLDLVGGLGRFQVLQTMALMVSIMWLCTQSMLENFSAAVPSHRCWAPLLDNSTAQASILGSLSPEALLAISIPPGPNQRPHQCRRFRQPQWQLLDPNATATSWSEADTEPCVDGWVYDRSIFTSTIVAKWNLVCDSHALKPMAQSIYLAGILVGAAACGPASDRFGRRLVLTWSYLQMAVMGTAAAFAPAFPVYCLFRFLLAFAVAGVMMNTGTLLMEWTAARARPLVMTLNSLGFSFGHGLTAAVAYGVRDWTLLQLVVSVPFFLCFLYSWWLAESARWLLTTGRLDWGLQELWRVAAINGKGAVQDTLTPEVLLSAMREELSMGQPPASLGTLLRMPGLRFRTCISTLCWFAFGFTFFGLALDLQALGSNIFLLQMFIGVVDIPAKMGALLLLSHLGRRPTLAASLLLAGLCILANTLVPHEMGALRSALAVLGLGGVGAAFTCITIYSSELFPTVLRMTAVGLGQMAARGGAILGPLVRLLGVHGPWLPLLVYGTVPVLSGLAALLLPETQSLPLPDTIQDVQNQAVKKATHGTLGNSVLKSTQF", "assay": "Inhibition assay of uric acid transport in HEK293-hURAT1 transfection cell line", "details": "500 nM, HEK293-hURAT1 transfection cell line, 14C-uric acid, average of three tests; for inhibition at 0.5 µM: read-out: Inhibitory rates of uric acid transport, ±SD (%)", "protocol": "2.1 Construction of a HEK293 stable cell line with high expression of hURAT1: The plasmid pCMV6-hURAT1 was transfected into HEK293 cells, then the stable strain was obtained by the G418 (final concentration 500 μg/mL) resistance screening, which is the high expression of hURAT1 transporter membrane protein.\n2.2 To a coated 24-well plate was added 200 μL of 0.1 mg/mL poly-lysine per well and the plate was left overnight. Poly-lysine was removed from wells. The wells were cleaned thoroughly with aseptic water and dried for use.\n2.3 To the above coated 24 well plate was added HEK293-hURAT1 stable cells (2×10^5 cells per well). The cells was cultured at 37° C. under 5% CO2 for 3 days.\nThe solution was fully mixed to give HBSS buffer (pH value: 7.4). The buffer was stored at −20° C.\n2.5 The HBSS buffer was warmed to 37° C. in a water bath. Washed cells with HBSS twice, added 160 μL of HBSS and 20 μL test compound per well. The final concentration of tested compound per well is 500 nM. The blank control well contains only 180 μL of HBSS without tested compound. The plate was placed at room temperature for 30 min.\n2.6 To each well was added 20 μL of 50 μM ^14C-Uric acid. The plate was placed at room temperature for 20 min.\n2.7 The solution in each well was removed and the cells in each well were washed with pre-cooled HBSS buffer. To each well was added 0.2 M NaOH to dissolve the cells. The solution containing cell fragments was collected and the right amount of scintillation liquid was added.\nThe formula for calculating the inhibitory rate of uric acid transport for compounds was shown as below: […]"}, "[3]": {"system": "human normal liver cell line WRL-68", "assay": "Cytotoxicity test on human normal liver cell line WRL-68 (Alamar Blue)", "details": "WRL68, WRL-68 cells, 120 h incubation, cell viability, read-out: half inhibitory concentration (IC50) against WRL-68", "protocol": "as §1, §2, §3, §4, §5, §6"}}}
{"smiles": "CCc1nc2ccccn2c1C(=O)c1cc(Br)c(O)c(Br)c1", "note": "[Compound 4, (3,5-dibromo-4-hydroxyphenyl)(2-ethylimidazo[1,2-a]-pyridin-3-yl)methanone]", "values": [{"measurement": "IC50", "setting": "[1]", "result": "> 100", "unit": "µM"}, {"measurement": "inhibition at 0.5 µM", "setting": "[2]", "result": "71.7 ± 1.84", "unit": "%"}, {"measurement": "IC50", "setting": "[3]", "result": "> 100", "unit": "µM"}]}
{"smiles": "CCc1nc2ccccn2c1C(=O)c1cc(I)c(O)c(I)c1", "note": "[Compound 5, (2-ethylimidazo[1,2-a]pyridine-3-yl)(4-hydroxy-3,5-diiodophenyl)methanone]", "values": [{"measurement": "IC50", "setting": "[1]", "result": "> 100", "unit": "µM"}, {"measurement": "inhibition at 0.5 µM", "setting": "[2]", "result": "63 ± 3.33", "unit": "%"}, {"measurement": "IC50", "setting": "[3]", "result": "> 100", "unit": "µM"}]}
{"smiles": "CCc1nc2ccccn2c1C(=O)c1cc(Cl)c(O)c(I)c1", "note": "[Compound 9, (3-chloro-4-hydroxy-5-iodophenyl)(2-ethylimidazo[1,2-a]-pyridin-3-yl)methanone]", "values": [{"measurement": "IC50", "setting": "[1]", "result": "> 100", "unit": "µM"}, {"measurement": "inhibition at 0.5 µM", "setting": "[2]", "result": "60.6 ± 0.82", "unit": "%"}, {"measurement": "IC50", "setting": "[3]", "result": "> 100", "unit": "µM"}]}
{"smiles": "CCc1nc2ccccn2c1C(=O)c1cc(Br)c(O)c(I)c1", "note": "[Compound 11, (3-bromo-4-hydroxy-5-iodophenyl)(2-ethylimidazo[1,2-a]-pyridine-3-yl)methanone]", "values": [{"measurement": "inhibition at 0.5 µM", "setting": "[2]", "result": "63.5 ± 0.95", "unit": "%"}]}
{"smiles": "CCc1nc2ccccn2c1C(=O)c1cc(C)c(O)c(I)c1", "note": "[Compound 12, (2-ethylimidazo[1,2-a]pyridine-3-yl)(4-hydroxy-3-iodo-5-methylphenyl)methanone]", "values": [{"measurement": "inhibition at 0.5 µM", "setting": "[2]", "result": "56.24 ± 0.12", "unit": "%"}]}
{"smiles": "CCc1nc2ccc(F)cn2c1C(=O)c1cc(Cl)c(O)c(Br)c1", "note": "[Compound 18, (3-bromo-5-chloro-4-hydroxyphenyl)(2-ethyl-6-fluoroimidazo[1,2-a]pyridine-3-yl)methanone]", "values": [{"measurement": "IC50", "setting": "[1]", "result": "> 100", "unit": "µM"}, {"measurement": "inhibition at 0.5 µM", "setting": "[2]", "result": "65.4 ± 0.71", "unit": "%"}, {"measurement": "IC50", "setting": "[3]", "result": "> 100", "unit": "µM"}]}
{"smiles": "CCc1nc2ccc(F)cn2c1C(=O)c1cc(Cl)c(O)c(I)c1", "note": "[Compound 19, (3-chloro-4-hydroxy-5-iodophenyl)(2-ethyl-6-fluoroimidazo[1,2-a]pyridine-3-yl)methanone]", "values": [{"measurement": "inhibition at 0.5 µM", "setting": "[2]", "result": "68.8 ± 2.83", "unit": "%"}]}
{"smiles": "CCc1nc2ccccn2c1C(=O)c1cc(Br)c(O)c(C(F)(F)F)c1", "note": "[Compound 29, (3-bromo-4-hydroxy-5-(trifluoromethyl)phenyl)-(2-ethylimidazo[1,2-a]pyridine-3-yl)methanone]", "values": [{"measurement": "inhibition at 0.5 µM", "setting": "[2]", "result": "64.35 ± 0.12", "unit": "%"}]}
{"smiles": "CCc1nc2ccc(C)cn2c1C(=O)c1cc(Br)c(O)c(Br)c1", "note": "[Compound 30, (3,5-dibromo-4-hydroxyphenyl)(2-ethyl-6-methylimidazo[1,2-a]pyridine-3-yl)methanone]", "values": [{"measurement": "inhibition at 0.5 µM", "setting": "[2]", "result": "68 ± 1.49", "unit": "%"}]}
{"smiles": "CCc1nc2ccc(OC)cn2c1C(=O)c1cc(Br)c(O)c(Br)c1", "note": "[Compound 33, (3,5-dibromo-4-hydroxyphenyl)(2-ethyl-6-methoxyimidazo[1,2-a]pyridine-3-yl)methanone]", "values": [{"measurement": "IC50", "setting": "[1]", "result": "> 100", "unit": "µM"}, {"measurement": "inhibition at 0.5 µM", "setting": "[2]", "result": "65.06 ± 0.39", "unit": "%"}, {"measurement": "IC50", "setting": "[3]", "result": "> 100", "unit": "µM"}]}
{"smiles": "CCc1nc2ccccn2c1C(=O)c1cc(Br)c(O)c(C#N)c1", "note": "[Compound 38, 3-bromo-5-(2-ethylimidazo[1,2-a]pyridine-3-carbonyl)-2-hydroxybenzonitrile]", "values": [{"measurement": "inhibition at 0.5 µM", "setting": "[2]", "result": "62.4 ± 0.72", "unit": "%"}]}
{"smiles": "CCc1nc2ccccn2c1C(=O)c1cc(I)c(O)c(C#N)c1", "note": "[Compound 39, 5-(2-ethylimidazo[1,2-a]pyridine-3-carbonyl)-2-hydroxy-3-iodobenzonitrile]", "values": [{"measurement": "inhibition at 0.5 µM", "setting": "[2]", "result": "64.1 ± 2.25", "unit": "%"}]}
{"smiles": "CCCc1nc2ccccn2c1C(=O)c1cc(Br)c(O)c(Br)c1", "note": "[Compound 41, (3,5-dibromo-4-hydroxyphenyl)(2-propylimidazo[1,2-a]-pyridine-3-yl)methanone]", "values": [{"measurement": "inhibition at 0.5 µM", "setting": "[2]", "result": "55.5 ± 1.02", "unit": "%"}]}
{"smiles": "CCc1nc2ccccn2c1C(=O)c1cc(Cl)c(O)c(Br)c1", "note": "[Compound 45, (3-bromo-5-chloro-4-hydroxyphenyl)(2-ethylimidazo[1,2-a]-pyridin-3-yl)methanone]", "values": [{"measurement": "IC50", "setting": "[1]", "result": "> 100", "unit": "µM"}, {"measurement": "inhibition at 0.5 µM", "setting": "[2]", "result": "62.9 ± 3.34", "unit": "%"}, {"measurement": "IC50", "setting": "[3]", "result": "> 100", "unit": "µM"}]}
{"smiles": "CCc1nc2ccc(F)cn2c1C(=O)c1cc(F)c(O)c(I)c1", "note": "[Compound 51, (2-ethyl-6-fluoroimidazo[1,2-a]pyridin-3-yl)(3-fluoro-4-hydroxy-5-iodophenyl)methanone]", "values": [{"measurement": "IC50", "setting": "[1]", "result": "> 100", "unit": "µM"}, {"measurement": "inhibition at 0.5 µM", "setting": "[2]", "result": "61.3 ± 1.1", "unit": "%"}, {"measurement": "IC50", "setting": "[3]", "result": "> 100", "unit": "µM"}]}
{"smiles": "CCc1nc2ccc(O)cn2c1C(=O)c1cc(Br)c(O)c(Br)c1", "note": "[Compound 52, (3,5-dibromo-4-hydroxyphenyl)(2-ethyl-6-hydroxyimidazo-[1,2-a]pyridin-3-yl)methanone]", "values": [{"measurement": "IC50", "setting": "[1]", "result": "> 100", "unit": "µM"}, {"measurement": "inhibition at 0.5 µM", "setting": "[2]", "result": "57.5 ± 3.61", "unit": "%"}, {"measurement": "IC50", "setting": "[3]", "result": "> 100", "unit": "µM"}]}
{"smiles": "CCc1nc2cc(C)c(Br)cn2c1C(=O)c1cc(Br)c(O)c(Br)c1", "note": "[Compound 56, (6-bromo-2-ethyl-7-methylimidazo[1,2-a]pyridin-3-yl)-(3,5-dibromo-4-hydroxyphenyl)methanone]", "values": [{"measurement": "IC50", "setting": "[1]", "result": "> 100", "unit": "µM"}, {"measurement": "inhibition at 0.5 µM", "setting": "[2]", "result": "62.8 ± 9.34", "unit": "%"}, {"measurement": "IC50", "setting": "[3]", "result": "> 100", "unit": "µM"}]}
{"smiles": "[2H]c1ccc2nc(CC)c(C(=O)c3cc(Br)c(O)c(Br)c3)n2c1", "note": "[Compound 69, (6-deuterium-2-ethylimidazo[1,2-a]pyridine-3-yl)(3,5-dibromo-4-hydroxyphenyl)methanone]", "values": [{"measurement": "Inhibitory rates of uric acid transport, ±SD (%)", "setting": "[2]", "result": "71.10 ± 2.50", "unit": "%"}]}
{"smiles": "CCc1nc2ccccn2c1C(=O)c1cc(I)c(O)c(C#N)c1", "note": "[Compound 75, 5-(2-ethylimidazo[1,2-a]pyridine-3-carbonyl)-2-hydroxy-3-iodobenzonitrile hydrogen chloride]", "values": [{"measurement": "IC50", "setting": "[1]", "result": "> 100", "unit": "µM"}, {"measurement": "Inhibitory rates of uric acid transport, ±SD (%)", "setting": "[2]; 0.5 µM", "result": "62.58 ± 0.84", "unit": "%"}, {"measurement": "IC50", "setting": "[3]", "result": "> 100", "unit": "µM"}]}
